{"source": "PubChem BioAssay AID1745844", "about": "(Carcinogenic Potency Database (CPDB), 2022)", "test_system": "rodent lifetime carcinogenesis bioassay, tumor incidence TD50", "assay": "carcinogenic potency in animals, long-term in vivo studies, CPDB compilation (AID 1745844)", "note": "The source made the active and inactive calls. How the calls were made is not given here."}
{"smiles": "c1ccc2occc2c1", "values": [{"measurement": "TD50", "setting": "mouse, strain B6C3F1, females, by gavage, site: any site (literature study), lesion: several types, types named in the paper, dosed 103 weeks, study length 104 weeks", "result": 45.9, "unit": "mg/kg/day"}, {"measurement": "TD50", "setting": "mouse, strain B6C3F1, females, by gavage, site: forestomach + liver + lung, lesion: squamous-cell carcinoma + squamous-cell papilloma + hepatocellular adenoma + alveolar/bronchiolar adenoma + alveolar/bronchiolar, dosed 103 weeks, study length 104 weeks", "result": 33.4, "unit": "mg/kg/day"}, {"measurement": "TD50", "setting": "mouse, strain B6C3F1, females, by gavage, site: forestomach, lesion: squamous-cell carcinoma + squamous-cell papilloma, dosed 103 weeks, study length 104 weeks", "result": 145, "unit": "mg/kg/day"}, {"measurement": "TD50", "setting": "mouse, strain B6C3F1, females, by gavage, site: forestomach, lesion: squamous-cell papilloma, dosed 103 weeks, study length 104 weeks", "result": 172, "unit": "mg/kg/day"}, {"measurement": "TD50", "setting": "mouse, strain B6C3F1, females, by gavage, site: liver, lesion: hepatocellular adenoma + hepatocellular carcinoma + neoplastic nodule, dosed 103 weeks, study length 104 weeks", "result": 36.4, "unit": "mg/kg/day"}, {"measurement": "TD50", "setting": "mouse, strain B6C3F1, females, by gavage, site: liver, lesion: hepatocellular adenoma + hepatocellular carcinoma, dosed 103 weeks, study length 104 weeks", "result": 36.4, "unit": "mg/kg/day"}, {"measurement": "TD50", "setting": "mouse, strain B6C3F1, females, by gavage, site: liver, lesion: hepatocellular adenoma, dosed 103 weeks, study length 104 weeks", "result": 34.4, "unit": "mg/kg/day"}, {"measurement": "TD50", "setting": "mouse, strain B6C3F1, females, by gavage, site: lung, lesion: alveolar/bronchiolar adenoma + alveolar/bronchiolar carcinoma, dosed 103 weeks, study length 104 weeks", "result": 174, "unit": "mg/kg/day"}, {"measurement": "TD50", "setting": "mouse, strain B6C3F1, females, by gavage, site: lung, lesion: alveolar/bronchiolar adenoma, dosed 103 weeks, study length 104 weeks", "result": 224, "unit": "mg/kg/day"}, {"measurement": "TD50", "setting": "mouse, strain B6C3F1, females, by gavage, site: multiple organs + spleen, lesion: malignant lymphoma, undifferentiated type, dosed 103 weeks, study length 104 weeks", "result": 322, "unit": "mg/kg/day"}, {"measurement": "TD50", "setting": "mouse, strain B6C3F1, males, by gavage, site: any site (literature study), lesion: several types, types named in the paper, dosed 103 weeks, study length 104 weeks", "result": 54.3, "unit": "mg/kg/day"}, {"measurement": "TD50", "setting": "mouse, strain B6C3F1, males, by gavage, site: forestomach + liver + lung, lesion: squamous-cell carcinoma + squamous-cell papilloma + hepatocellular adenoma + hepatoblastoma + hepatocellular carcinoma + alveolar/, dosed 103 weeks, study length 104 weeks", "result": 23.9, "unit": "mg/kg/day"}, {"measurement": "TD50", "setting": "mouse, strain B6C3F1, males, by gavage, site: forestomach, lesion: squamous-cell carcinoma + squamous-cell papilloma, dosed 103 weeks, study length 104 weeks", "result": 108, "unit": "mg/kg/day"}, {"measurement": "TD50", "setting": "mouse, strain B6C3F1, males, by gavage, site: forestomach, lesion: squamous-cell carcinoma, dosed 103 weeks, study length 104 weeks", "result": 383, "unit": "mg/kg/day"}, {"measurement": "TD50", "setting": "mouse, strain B6C3F1, males, by gavage, site: forestomach, lesion: squamous-cell papilloma, dosed 103 weeks, study length 104 weeks", "result": 154, "unit": "mg/kg/day"}, {"measurement": "TD50", "setting": "mouse, strain B6C3F1, males, by gavage, site: liver, lesion: hepatoblastoma + hepatocellular carcinoma, dosed 103 weeks, study length 104 weeks", "result": 114, "unit": "mg/kg/day"}, {"measurement": "TD50", "setting": "mouse, strain B6C3F1, males, by gavage, site: liver, lesion: hepatoblastoma, dosed 103 weeks, study length 104 weeks", "result": 102, "unit": "mg/kg/day"}, {"measurement": "TD50", "setting": "mouse, strain B6C3F1, males, by gavage, site: liver, lesion: hepatocellular adenoma + hepatoblastoma + hepatocellular carcinoma, dosed 103 weeks, study length 104 weeks", "result": 19.8, "unit": "mg/kg/day"}, {"measurement": "TD50", "setting": "mouse, strain B6C3F1, males, by gavage, site: liver, lesion: hepatocellular adenoma + hepatocellular carcinoma + neoplastic nodule, dosed 103 weeks, study length 104 weeks", "result": 21.3, "unit": "mg/kg/day"}, {"measurement": "TD50", "setting": "mouse, strain B6C3F1, males, by gavage, site: liver, lesion: hepatocellular adenoma + hepatocellular carcinoma, dosed 103 weeks, study length 104 weeks", "result": 21.3, "unit": "mg/kg/day"}, {"measurement": "TD50", "setting": "mouse, strain B6C3F1, males, by gavage, site: liver, lesion: hepatocellular adenoma, dosed 103 weeks, study length 104 weeks", "result": 20.5, "unit": "mg/kg/day"}, {"measurement": "TD50", "setting": "mouse, strain B6C3F1, males, by gavage, site: lung, lesion: alveolar/bronchiolar adenoma + alveolar/bronchiolar carcinoma, dosed 103 weeks, study length 104 weeks", "result": 160, "unit": "mg/kg/day"}, {"measurement": "TD50", "setting": "mouse, strain B6C3F1, males, by gavage, site: lung, lesion: alveolar/bronchiolar adenoma, dosed 103 weeks, study length 104 weeks", "result": 136, "unit": "mg/kg/day"}, {"measurement": "TD50", "setting": "mouse, strain B6C3F1, males, by gavage, site: multiple organs, lesion: malignant lymphoma, lymphocytic type, dosed 103 weeks, study length 104 weeks", "result": 919, "unit": "mg/kg/day"}, {"measurement": "TD50", "setting": "rat, strain Fischer 344, females, by gavage, site: any site (literature study), lesion: several types, types named in the paper, dosed 103 weeks, study length 104 weeks", "result": 577, "unit": "mg/kg/day"}, {"measurement": "TD50", "setting": "rat, strain Fischer 344, females, by gavage, site: kidney, lesion: tubular-cell adenocarcinoma, dosed 103 weeks, study length 104 weeks", "result": 424, "unit": "mg/kg/day"}, {"measurement": "TD50", "setting": "rat, strain Fischer 344, females, by gavage, site: liver, lesion: hepatocellular adenoma + hepatocellular carcinoma + neoplastic nodule, dosed 103 weeks, study length 104 weeks", "result": 2090, "unit": "mg/kg/day"}, {"measurement": "TD50", "setting": "rat, strain Fischer 344, females, by gavage, site: lung, lesion: alveolar/bronchiolar adenoma + alveolar/bronchiolar carcinoma, dosed 103 weeks, study length 104 weeks", "result": 418, "unit": "mg/kg/day"}, {"measurement": "TD50", "setting": "rat, strain Fischer 344, females, by gavage, site: lung, lesion: alveolar/bronchiolar adenoma, dosed 103 weeks, study length 104 weeks", "result": 530, "unit": "mg/kg/day"}, {"measurement": "TD50", "setting": "rat, strain Fischer 344, females, by gavage, site: subcutaneous tissue, lesion: neurilemoma, malignant, dosed 103 weeks, study length 104 weeks", "result": 98.8, "unit": "mg/kg/day"}, {"measurement": "TD50", "setting": "rat, strain Fischer 344, females, by gavage, site: tongue, lesion: squamous-cell papilloma, dosed 103 weeks, study length 104 weeks", "result": 574, "unit": "mg/kg/day"}, {"measurement": "TD50", "setting": "rat, strain Fischer 344, males, by gavage, site: any site (literature study), lesion: several types, types named in the paper, dosed 103 weeks, study length 104 weeks", "result": 22.5, "unit": "mg/kg/day"}, {"measurement": "TD50", "setting": "rat, strain Fischer 344, males, by gavage, site: liver + multiple organs, lesion: mononuclear-cell leukemia, dosed 103 weeks, study length 104 weeks", "result": 55.3, "unit": "mg/kg/day"}, {"measurement": "TD50", "setting": "rat, strain Fischer 344, males, by gavage, site: lung, lesion: alveolar/bronchiolar carcinoma, dosed 103 weeks, study length 104 weeks", "result": 166, "unit": "mg/kg/day"}, {"measurement": "TD50", "setting": "rat, strain Fischer 344, males, by gavage, site: mammary gland, lesion: fibroadenoma, dosed 103 weeks, study length 104 weeks", "result": 271, "unit": "mg/kg/day"}, {"measurement": "TD50", "setting": "rat, strain Fischer 344, males, by gavage, site: pituitary gland, lesion: adenoma, NOS, dosed 103 weeks, study length 104 weeks", "result": 45.8, "unit": "mg/kg/day"}, {"measurement": "TD50", "setting": "rat, strain Fischer 344, males, by gavage, site: testis, lesion: interstitial-cell tumor, dosed 103 weeks, study length 104 weeks", "result": "8.03 mg/kg/day (inactive)"}, {"measurement": "TD50", "setting": "rat, strain Fischer 344, males, by gavage, site: thyroid gland, lesion: follicular-cell carcinoma, dosed 103 weeks, study length 104 weeks", "result": 389, "unit": "mg/kg/day"}]}
{"smiles": "COCCl", "values": [{"measurement": "TD50", "setting": "hamster, strain Syrian Golden, males, inhaled, site: lung, lesion: adenocarcinoma, dosed 113 weeks, study length 124 weeks", "result": 32.9, "unit": "mg/kg/day"}, {"measurement": "TD50", "setting": "hamster, strain Syrian Golden, males, inhaled, site: several sites, sites named in the paper, lesion: several types, types named in the paper, dosed 113 weeks, study length 124 weeks", "result": 16.4, "unit": "mg/kg/day"}, {"measurement": "TD50", "setting": "rat, strain Sprague-Dawley, males, inhaled, site: several sites, sites named in the paper, lesion: several types, types named in the paper, dosed 113 weeks, study length 122 weeks", "result": 5.5, "unit": "mg/kg/day"}]}
